# Biological target: T1, α2AAR (Homo sapiens, UniProt P08913)
# T1 construct: host or cells: HEK293 (membranes)
# T1 sequence (P08913 1-465): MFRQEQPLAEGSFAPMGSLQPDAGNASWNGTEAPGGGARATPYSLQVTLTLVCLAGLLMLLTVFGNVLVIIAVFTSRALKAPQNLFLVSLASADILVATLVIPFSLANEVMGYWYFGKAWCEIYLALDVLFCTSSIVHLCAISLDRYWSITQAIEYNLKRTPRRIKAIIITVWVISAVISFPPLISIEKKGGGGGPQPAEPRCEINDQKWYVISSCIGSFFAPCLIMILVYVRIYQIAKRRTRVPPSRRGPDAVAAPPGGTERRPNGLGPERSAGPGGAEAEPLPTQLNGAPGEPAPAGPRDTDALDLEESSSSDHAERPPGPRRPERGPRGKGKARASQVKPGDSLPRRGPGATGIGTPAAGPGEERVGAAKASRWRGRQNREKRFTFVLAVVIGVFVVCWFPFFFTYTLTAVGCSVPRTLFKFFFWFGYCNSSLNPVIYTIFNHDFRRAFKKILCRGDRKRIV
# Assay: α2AAR binding assay ([3H]-RX 821002 radioligand)
# Settings: [3H]-RX 821002 0.5 nM, HEK293 membranes; read-out: α2A affinity (Ki)
# Procedure: The α2AR Binding Assay was conducted using a stable HEK293 cell line, specifically constructed by WuXi AppTec for targeting α2AAR. […] Both the assay and wash buffers consist of 50 mM Tris-HCl at a pH of 7.4 (Tris base, Sigma, T1503-1 KG).
# The procedure initiated with the preparation of test compounds and a reference compound, yohimbine (Sigma, Y3125), through an 8-point 4-fold serial dilution, transferring 1 μL of each to the assay plate. […] After scaling, the plates were agitated at room temperature for one hour. Subsequently, the Unifilter-96 GF/C filter plates were pre-soaked with 0.3% PEI (Sigma, P3143) for at least half an hour. The reaction mixtures were then filtered and washed four times with cold wash buffer using a Perkin Elmer Cell harvester. Post-filtration, the plates were dried at 50° C. for one hour. […] The top of the plates was then sealed with TopSeal-A sealing film. The trapped 3H was quantified using a Perkin Elmer MicroBeta2 Reader. […] Finally, the data were analyzed with Prism 5.0 software, employing the “log (inhibitor) vs. response-Variable slope” model for data fitting. This comprehensive process ensured precise assessment of the binding affinity of compounds to the α2AAR.
row,Compound,Ki [nM]
1,Cc1cccc(C(c2cccc(NC(=O)CCC(N)=O)c2)c2c[nH]cn2)c1C (centres unmarked) [compound 42],50 to 250
2,Cc1cccc(C(c2c[nH]cn2)C2CCCC(C(=O)O)C2)c1C (centres unmarked) [compound 60],250 to 1000
3,Cc1cccc(C(c2c[nH]cn2)N2CCc3ccc(NS(C)(=O)=O)cc32)c1C (centres unmarked) [compound 106],50 to 250
4,Cc1cccc(C(c2cccc(C(=O)NOCCN3CCOCC3)c2)c2c[nH]cn2)c1C (centres unmarked) [compound 91],50 to 250
5,Cc1cccc(C(Cc2ccc(P(=O)(O)O)cc2)c2c[nH]cn2)c1C (centres unmarked) [compound 199],> 1000
6,Cc1cccc(C(CCc2ccccc2NS(C)(=O)=O)c2c[nH]cn2)c1C (centres unmarked) [compound 183],250 to 1000
7,Cc1cccc(C(c2cccc(NC(=O)CN(C)C)c2)c2c[nH]cn2)c1C (centres unmarked) [compound 110],50 to 250
8,Cc1cccc(C(c2cccc(NC(=O)CN3CCNCC3)c2)c2c[nH]cn2)c1C (centres unmarked) [compound 107],50 to 250
9,Cc1cccc(C(c2cccc(NS(=O)(=O)CCc3cncnc3)c2)c2c[nH]cn2)c1C (centres unmarked) [compound 189],10 to 50
10,Cc1csc(CCS(=O)(=O)Nc2cccc(C(c3c[nH]cn3)c3cccc(C)c3C)c2)n1 (centres unmarked) [compound 131],10 to 50
11,Cc1c(CO)cccc1C(c1cccc(NS(C)(=O)=O)c1)c1c[nH]cn1 (centres unmarked) [compound 115],250 to 1000
12,CONC(=O)c1cccc(CC(NC2=NCCS2)c2cccc(Cl)c2Cl)c1 (centres unmarked) [compound 512],< 10
13,Cc1cccc(C(c2c[nH]cn2)c2cccc(NC(=O)CC#N)c2F)c1C (centres unmarked) [compound 41],50 to 250
14,Cc1c(F)cccc1C(c1cccc(NS(C)(=O)=O)c1)c1c[nH]cn1 (centres unmarked) [compound 75],50 to 250
15,"Cc1cccc(C(Cc2cccc(NS(=O)(=O)CC3CCOCC3)c2)c2c[nH]cn2)c1C (single isomer, unassigned) [112-A]",250 to 1000
16,Cc1cccc(C(NC2=NCCS2)c2cccc(NS(C)(=O)=O)c2)c1C (centres unmarked) [compound 504],50 to 250
17,Cc1csc(C)c1C(c1cccc(NS(C)(=O)=O)c1)c1c[nH]cn1 (centres unmarked) [compound 402],250 to 1000
18,COc1ccccc1C(c1cccc(NC(=O)CC2CCOCC2)c1)c1c[nH]cn1 (centres unmarked) [compound 132],50 to 250
19,CNC(=O)Nc1cccc(C(c2c[nH]cn2)c2cccc(C)c2C)c1 (centres unmarked) [compound 128],50 to 250

row,Compound,Ki [nM]
1,Cc1cccc(C(NC2=NCCS2)c2cccc(NC(=O)CC3CCOCC3)c2)c1C (centres unmarked) [compound 507],10 to 50
2,Cc1cccc(C(CCCCNS(C)(=O)=O)c2c[nH]cn2)c1C (centres unmarked) [compound 191],50 to 250
3,Cc1cccc(C(CC23CC4CC(C2)CC(C(N)=O)(C4)C3)c2c[nH]cn2)c1C (centres unmarked) [compound 188],> 1000
4,NC(=O)c1cccc(CC(Oc2c(Cl)cccc2Cl)C2=NCCN2)c1 (centres unmarked) [compound 502],50 to 250
5,COc1ccccc1C(NC1=NCCS1)c1cccc(NC(=O)CC2CCOCC2)c1 (centres unmarked) [compound 514],50 to 250
6,"Cc1cccc(C(Cc2ccc(C(=O)O)cc2)c2c[nH]cn2)c1C (single isomer, unassigned) [175-A]",> 1000
7,Cc1cccc(C(c2cccc(NC(=O)CCN3CCN(C)CC3)c2)c2c[nH]cn2)c1C (centres unmarked) [compound 82],> 1000
8,CS(=O)(=O)Nc1cccc(C(c2c[nH]cn2)c2c(F)cccc2Cl)c1 (centres unmarked) [compound 78],250 to 1000
9,CC(=O)NCc1cccc(C(c2c[nH]cn2)c2cccc(C)c2C)c1 (centres unmarked) [compound 65],50 to 250
10,Cc1cccc(C(c2cccc(OCCC#N)c2)c2c[nH]cn2)c1C (centres unmarked) [compound 48],> 1000
11,CONC(=O)c1cccc(CC(NC2=NCCS2)c2cccc(C)c2C)c1 (centres unmarked) [compound 511],< 10
12,Cc1cccc(C(c2cccc(CNS(C)(=O)=O)c2)c2c[nH]cn2)c1C (centres unmarked) [compound 69],50 to 250
13,CONC(=O)c1cccc(C(c2ccccc2)c2c[nH]cn2)c1 (centres unmarked) [compound 49],> 1000
14,"Cc1cccc(C(c2c[nH]cn2)c2cccc(C(=O)NCC3CCOCC3)c2F)c1C (single isomer, unassigned) [124-A]",250 to 1000
15,CONC(=O)c1cc(CC(NC2=NCCS2)c2ccccc2OC)ccn1 (centres unmarked) [compound 513],< 10
16,CONC(=O)c1cc(C(c2c[nH]cn2)c2cccc(C)c2C)ccc1F (centres unmarked) [compound 53],250 to 1000
17,"Cc1cccc(C(c2cccc(OCCNS(C)(=O)=O)c2)c2c[nH]cn2)c1C (single isomer, unassigned) [46-A]",> 1000
18,Cc1cccc(C(c2cccc(N(C)S(C)(=O)=O)c2)c2c[nH]cn2)c1C (centres unmarked) [compound 71],10 to 50
19,CS(=O)(=O)Nc1cccc(CC(C2=NCCN2)c2c(Cl)cccc2Cl)c1 (centres unmarked) [compound 501],250 to 1000

row,Compound,Ki [nM]
1,CONC(=O)c1cccc(C(NC2=NCCS2)c2ccccc2OC)c1 (centres unmarked) [compound 508],250 to 1000
2,Cc1cccc(C(c2cccc(NC(=O)c3cn[nH]c3)c2)c2c[nH]cn2)c1C (centres unmarked) [compound 87],50 to 250
3,Cc1cccc(C(CCOCCOCCNS(C)(=O)=O)c2c[nH]cn2)c1C (centres unmarked) [compound 93],250 to 1000
4,Cc1cccc(C(Cc2cccc(NS(=O)(=O)CC3CCOCC3)c2)c2c[nH]cn2)c1C (centres unmarked) [compound 142],< 10
5,Cc1cccc(C(c2cccc(CN3CCCCC3)c2)c2c[nH]cn2)c1C (centres unmarked) [compound 114],> 1000
6,Cc1cccc(C(c2cccc(CCN3CCC(O)CC3)c2)c2c[nH]cn2)c1C (centres unmarked) [compound 125],10 to 50
7,COc1ccccc1C(c1cccc(NS(C)(=O)=O)c1)c1c[nH]cn1 (centres unmarked) [compound 135],50 to 250
8,Cc1cccc(C(c2ccnc(NS(C)(=O)=O)c2)c2c[nH]cn2)c1C (centres unmarked) [compound 57],250 to 1000
9,CCc1ccccc1C(c1cccc(NS(C)(=O)=O)c1)c1c[nH]cn1 (centres unmarked) [compound 140],50 to 250
10,"Cc1cccc(C(c2c[nH]cn2)c2cccc(C(N)=O)c2F)c1C (single isomer, unassigned) [45-A]",> 1000
11,CONC(=O)c1cc(C(c2c[nH]cn2)c2cccc(C)c2C)cs1 (centres unmarked) [compound 182],50 to 250
12,CNS(=O)(=O)Nc1cccc(C(c2c[nH]cn2)c2cccc(C)c2C)c1 (centres unmarked) [compound 127],10 to 50
13,COC(=O)Nc1cccc(C(c2c[nH]cn2)c2cccc(C)c2C)c1 (centres unmarked) [compound 62],50 to 250
14,"Cc1cccc(C(Cc2ccc(C(N)=O)c(F)c2)c2c[nH]cn2)c1C (single isomer, unassigned) [156-A]",> 1000
15,"Cc1cccc(C(c2cccc(NC(=O)CCC#N)c2)c2c[nH]cn2)c1C (single isomer, unassigned) [43-A]",> 1000
16,Cc1cccc(C(CCCCCC(N)=O)c2c[nH]cn2)c1C (centres unmarked) [compound 240],250 to 1000
17,Cc1c(F)cccc1C(c1cccc(NC(=O)CC2CCOCC2)c1)c1c[nH]cn1 (centres unmarked) [compound 113],50 to 250
18,Cc1cccc(C(c2c[nH]cn2)c2ccnc(C(N)=O)c2F)c1C (centres unmarked) [compound 58],50 to 250
19,Cc1cccc(C(OCCOCCNS(C)(=O)=O)c2c[nH]cn2)c1C (centres unmarked) [compound 40],> 1000

# Same assay, conditions: α2A affinity (Ki, nM)
row,Compound,Ki [nM]
1,Cc1cccc(C(CCCNS(C)(=O)=O)c2c[nH]cn2)c1C (centres unmarked) [compound 184],250 to 1000
2,"Cc1cccc(C(c2cnc[nH]2)C2CCc3ccc(O)cc32)c1C (single isomer, unassigned) [100-A]",< 10
3,Cc1cccc(C(COCCNS(C)(=O)=O)c2c[nH]cn2)c1C (centres unmarked) [compound 66],250 to 1000
4,"Cc1cccc(C(c2cnc[nH]2)C2CCc3ccc(O)cc32)c1C (single isomer, unassigned) [100-B]",50 to 250
5,Cc1cccc(C(CCCCCNS(C)(=O)=O)c2c[nH]cn2)c1C (centres unmarked) [compound 249],50 to 250
